Test systems include NCI-H23; EKVX; SK-MEL-28; OVCAR-5; NCI/ADR-RES; Malme-3M; MOLT-4; COLO 205; UACC-62; Hs-578T; KM12; MDA-MB-435; HL-60; LOX IMVI; RPMI-8226; MDA-MB-231; A498; U-251; HCC 2998.
What all share (assay): growth of human tumour cells (NCI), 48 h

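All cell lines were grown in 96-well plates and treated with compound for 48 hours. At the GI50, growth is halved.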 Active and inactive are the calls of the source. Rule as the data show it: active = GI50 up to about 1.1 µM and inactive = higher.

For the compound `Cc1cc2c(cc1C)[n+]([O-])c(C(F)(F)F)c(C(=O)c1ccccc1)[n+]2[O-]`, the GI50 in the assay on NCI-H23 was 2.12 µM (inactive); in the assay on EKVX, 0.785 µM (active); in the assay with SK-MEL-28 it was 4.52 µM (inactive); in the assay with OVCAR-5, 3.08 µM (inactive); with NCI/ADR-RES, 2.49 µM (inactive); in the assay with Malme-3M it was 2.39 µM (inactive). The GI50 in the assay on MOLT-4 was 1.69 µM (inactive); in the assay on COLO 205 it was 1.82 µM (inactive); in the assay on UACC-62, 2.22 µM (inactive); with Hs-578T, 2.58 µM (inactive); with KM12, 1.85 µM (inactive); in the assay on MDA-MB-435 it was 2.69 µM (inactive). The GI50 in the assay with HL-60 is 1.69 µM (inactive); with LOX IMVI, 2.17 µM (inactive); with RPMI-8226 it was 1.24 µM (inactive); with MDA-MB-231, 2.3 µM (inactive); with A498, 4.44 µM (inactive); with U-251 it was 2.67 µM (inactive).

On to `Cc1cc2c(O)c(c1)CN(CC(=O)O)Cc1cc(C)cc(c1O)CN(CC(=O)O)Cc1cc(C)cc(c1O)CN(CC(=O)O)C2`, for which the GI50 with NCI-H23, in the assay on EKVX, with SK-MEL-28, in the assay on OVCAR-5, with NCI/ADR-RES and with HCC 2998 was > 100 µM (inactive) in each case. Further, the GI50 in the assay with Malme-3M, in the assay with MOLT-4, in the assay with COLO 205, in the assay on UACC-62, with Hs-578T and with KM12 was > 100 µM (inactive) in each case. Moreover, the GI50 in the assay on MDA-MB-435, in the assay with LOX IMVI, in the assay with RPMI-8226, with MDA-MB-231, in the assay with A498 and in the assay on U-251 was > 100 µM (inactive) in each case.

For the compound `CC(C)=CCc1c2c(c3occ(-c4ccc(O)c(O)c4)c(=O)c3c1O)C=CC(C)(C)O2` [POMIFERIN], the GI50 was 1.57 µM (inactive) in the assay on NCI-H23; 4.86 µM (inactive) in the assay with EKVX; 2.51 µM (inactive) in the assay on SK-MEL-28; 7.82 µM (inactive) in the assay with OVCAR-5; 2.18 µM (inactive) in the assay on NCI/ADR-RES; 1.22 µM (inactive) with HCC 2998. Further, the GI50 was 1.14 µM (inactive) in the assay on Malme-3M; 0.553 µM (active) in the assay on MOLT-4; 1.78 µM (inactive) with COLO 205; 3.85 µM (inactive) in the assay on UACC-62; 1.22 µM (inactive) in the assay on Hs-578T; 1.72 µM (inactive) in the assay on KM12. Moreover, the GI50 is 1.75 µM (inactive) with MDA-MB-435; 2.19 µM (inactive) in the assay with LOX IMVI; 1.67 µM (inactive) in the assay with RPMI-8226; 1.39 µM (inactive) with MDA-MB-231; 15.3 µM (inactive) with A498; 1.48 µM (inactive) in the assay with U-251.

As for `CNc1nc2c(C)ccc3nc(N(C)C)nc-3c2n1C`, the GI50 with NCI-H23, in the assay on EKVX, with SK-MEL-28, with OVCAR-5, in the assay with NCI/ADR-RES and in the assay on HCC 2998 was > 10 µM (inactive) throughout. The GI50 in the assay on Malme-3M, in the assay with MOLT-4, in the assay on COLO 205, with Hs-578T, in the assay on KM12 and in the assay on MDA-MB-435 was > 10 µM (inactive) throughout. In addition, the GI50 in the assay on RPMI-8226, in the assay with MDA-MB-231, with A498 and in the assay on U-251 was > 10 µM (inactive) each time.

As to `CCCCCC1CC=CC(=O)O1` (stereo not given), the GI50 was 5.69 µM (inactive) in the assay on NCI-H23; 3.24 µM (inactive) in the assay with EKVX; 4.51 µM (inactive) with SK-MEL-28; 6.84 µM (inactive) in the assay on OVCAR-5; 5.73 µM (inactive) in the assay on NCI/ADR-RES; 0.933 µM (active) with Malme-3M. Also, the GI50 in the assay on MOLT-4 was 2.25 µM (inactive); in the assay with COLO 205, 4.06 µM (inactive); in the assay with UACC-62, 11.5 µM (inactive); in the assay on Hs-578T, 18 µM (inactive); in the assay with KM12 it was 4.39 µM (inactive); with MDA-MB-435, 5.43 µM (inactive). Also, the GI50 with HL-60 is 4.93 µM (inactive); in the assay with LOX IMVI it was 7.62 µM (inactive); in the assay on RPMI-8226 it was 1.91 µM (inactive); in the assay with MDA-MB-231 it was 10.6 µM (inactive); in the assay with A498, 26.1 µM (inactive); with U-251, 3.56 µM (inactive).

For the compound `O=C(N/N=C1/C(=O)c2c3ccccc3cc3cccc1c23)c1ccccc1`, the GI50 with NCI-H23 is 36.3 µM (inactive); with EKVX, 75.7 µM (inactive); in the assay on SK-MEL-28, > 54.8 µM (inactive); in the assay with OVCAR-5, 34.3 µM (inactive); with NCI/ADR-RES it was 40 µM (inactive); in the assay on Malme-3M, 33.5 µM (inactive). In addition, the GI50 in the assay on MOLT-4 is > 62.7 µM (inactive); in the assay with COLO 205, > 65.6 µM (inactive); with UACC-62 it was 26.8 µM (inactive); in the assay with Hs-578T, 40.6 µM (inactive); in the assay on KM12, 16.7 µM (inactive); in the assay on MDA-MB-435, 25.9 µM (inactive). The GI50 was > 68.9 µM (inactive) in the assay on HL-60; 37.9 µM (inactive) with LOX IMVI; > 80.4 µM (inactive) in the assay on RPMI-8226; 42.4 µM (inactive) with MDA-MB-231; 22.1 µM (inactive) with A498; 31.6 µM (inactive) in the assay on U-251.

`CCOC(=O)/C=C/[C@@H](CC)O[Si](C(C)C)(C(C)C)C(C)C`: the GI50 with NCI-H23, in the assay on EKVX, with OVCAR-5, in the assay with NCI/ADR-RES, in the assay on HCC 2998 and in the assay on Malme-3M was > 100 µM (inactive) in each case. For the same compound, the GI50 in the assay on MOLT-4, in the assay on COLO 205, with UACC-62, in the assay on Hs-578T, in the assay on KM12 and in the assay on MDA-MB-435 was > 100 µM (inactive) in each case. In addition, the GI50 was > 100 µM (inactive) in the assay on LOX IMVI; 50.6 µM (inactive) in the assay on RPMI-8226; > 100 µM (inactive) with MDA-MB-231; > 100 µM (inactive) in the assay with A498; > 100 µM (inactive) in the assay with U-251.

For `Sc1nnc(Cc2ccc(Cl)cc2)[nH]1`, the GI50 in the assay with NCI-H23 was 26.6 µM (inactive); in the assay with EKVX, 47.1 µM (inactive); in the assay on SK-MEL-28, > 100 µM (inactive); in the assay on OVCAR-5, > 100 µM (inactive); in the assay with NCI/ADR-RES, 42.1 µM (inactive); with HCC 2998, > 100 µM (inactive). Moreover, the GI50 in the assay with Malme-3M is 29.1 µM (inactive); with MOLT-4, 50.2 µM (inactive); in the assay with COLO 205, 48 µM (inactive); in the assay on UACC-62, 66.7 µM (inactive); with Hs-578T it was 16.4 µM (inactive); in the assay with KM12, 43.2 µM (inactive). For the same compound, the GI50 in the assay with MDA-MB-435 was 88.3 µM (inactive); in the assay with LOX IMVI, 38.1 µM (inactive); in the assay with MDA-MB-231 it was 42.3 µM (inactive); in the assay on A498 it was 57.4 µM (inactive); with U-251 it was 58.1 µM (inactive).

These data come from ChEMBL document CHEMBL1201862, “PubChem BioAssay data set” (2004).
